Assay results: the NIST ThermoML archive (doi:10.1021/acs.jced.8b00554)

Details: Liquid, Vibrating tube method

CCCO [propan-1-ol]
Details	mass density [kg/m3]
313.15 K, 100 kPa	787.65
313.15 K, 1020 kPa	788.65
313.15 K, 2000 kPa	789.51
313.15 K, 3010 kPa	790.39
313.15 K, 4020 kPa	791.23
313.15 K, 5020 kPa	792.09
313.15 K, 6010 kPa	792.93
313.15 K, 7020 kPa	793.75
313.15 K, 8030 kPa	794.57
313.15 K, 9010 kPa	795.39
313.15 K, 10020 kPa	796.2
313.15 K, 11010 kPa	796.99
313.15 K, 12020 kPa	797.79
313.15 K, 13010 kPa	798.57
313.15 K, 14020 kPa	799.35
313.15 K, 15030 kPa	800.12
313.15 K, 16010 kPa	800.88
313.15 K, 17020 kPa	801.63
313.15 K, 18010 kPa	802.39
313.15 K, 19020 kPa	803.13
313.15 K, 20010 kPa	803.87
323.15 K, 100 kPa	779.29
323.15 K, 1020 kPa	780.33
323.15 K, 2020 kPa	781.26
323.15 K, 3010 kPa	782.17
323.15 K, 4030 kPa	783.07
323.15 K, 5010 kPa	783.96
323.15 K, 6010 kPa	784.85
323.15 K, 7000 kPa	785.72
323.15 K, 8010 kPa	786.58
323.15 K, 9020 kPa	787.44
323.15 K, 10030 kPa	788.29
323.15 K, 11020 kPa	789.12
323.15 K, 12010 kPa	789.95
323.15 K, 13020 kPa	790.78
323.15 K, 14030 kPa	791.59
323.15 K, 15030 kPa	792.41
323.15 K, 16000 kPa	793.2
323.15 K, 17010 kPa	794
323.15 K, 18030 kPa	794.78
323.15 K, 19030 kPa	795.56
323.15 K, 20020 kPa	796.33
333.15 K, 100 kPa	770.58
333.15 K, 1030 kPa	771.74
333.15 K, 2020 kPa	772.72
333.15 K, 3020 kPa	773.69
333.15 K, 4030 kPa	774.64
333.15 K, 5020 kPa	775.59
333.15 K, 6020 kPa	776.52
333.15 K, 7010 kPa	777.45
333.15 K, 8020 kPa	778.36
333.15 K, 9010 kPa	779.27
333.15 K, 10030 kPa	780.16
333.15 K, 11020 kPa	781.05
333.15 K, 12030 kPa	781.93
333.15 K, 13010 kPa	782.79
333.15 K, 14030 kPa	783.65
333.15 K, 15030 kPa	784.5
333.15 K, 16000 kPa	785.34
333.15 K, 17030 kPa	786.17
333.15 K, 18010 kPa	787
333.15 K, 19020 kPa	787.81
333.15 K, 20000 kPa	788.62
343.15 K, 100 kPa	761.6
343.15 K, 1010 kPa	762.86
343.15 K, 2020 kPa	763.91
343.15 K, 3000 kPa	764.93
343.15 K, 4020 kPa	765.95
343.15 K, 5020 kPa	766.96
343.15 K, 6020 kPa	767.95
343.15 K, 7030 kPa	768.93
343.15 K, 8020 kPa	769.91
343.15 K, 9000 kPa	770.86
343.15 K, 10020 kPa	771.81
343.15 K, 11030 kPa	772.74
343.15 K, 12020 kPa	773.67
343.15 K, 13010 kPa	774.59
343.15 K, 14000 kPa	775.49
343.15 K, 15010 kPa	776.39
343.15 K, 16020 kPa	777.28
343.15 K, 17020 kPa	778.16
343.15 K, 18000 kPa	779.02
343.15 K, 19020 kPa	779.89
343.15 K, 20010 kPa	780.74
353.15 K, 100 kPa	752.39
353.15 K, 1010 kPa	753.65
353.15 K, 2010 kPa	754.76
353.15 K, 2990 kPa	755.86
353.15 K, 4000 kPa	756.96
353.15 K, 5000 kPa	758.04
353.15 K, 6000 kPa	759.1
353.15 K, 7010 kPa	760.14
353.15 K, 7990 kPa	761.16
353.15 K, 8990 kPa	762.2
353.15 K, 9990 kPa	763.21
353.15 K, 11010 kPa	764.2
353.15 K, 12010 kPa	765.19
353.15 K, 13000 kPa	766.16
353.15 K, 14010 kPa	767.13
353.15 K, 15010 kPa	768.07
353.15 K, 16010 kPa	769.01
353.15 K, 17010 kPa	769.94
353.15 K, 17990 kPa	770.86
353.15 K, 18990 kPa	771.76
353.15 K, 19990 kPa	772.67
363.15 K, 100 kPa	743.01
363.15 K, 1020 kPa	744.08
363.15 K, 2030 kPa	745.28
363.15 K, 3030 kPa	746.48
363.15 K, 4020 kPa	747.65
363.15 K, 5000 kPa	748.81
363.15 K, 6020 kPa	749.94
363.15 K, 7020 kPa	751.07
363.15 K, 8010 kPa	752.18
363.15 K, 9000 kPa	753.27
363.15 K, 10030 kPa	754.35
363.15 K, 11010 kPa	755.41
363.15 K, 12010 kPa	756.47
363.15 K, 13010 kPa	757.5
363.15 K, 14000 kPa	758.53
363.15 K, 15020 kPa	759.54
363.15 K, 16010 kPa	760.54
363.15 K, 17030 kPa	761.52
363.15 K, 18010 kPa	762.51
363.15 K, 19000 kPa	763.47
363.15 K, 20020 kPa	764.42
